Experimental data: EP2197279B1, “C10-SUBSTITUTED CAMPTOTHECIN ANALOGS” (BIONUMERIK PHARMACEUTICALS, INC., priority 2007, dated 2009)

Legend:
[1] = system: A2780/WT (wild-type) cells; experiment: Sulforhodamine B (SRB) cytotoxicity assay in A2780/WT cells; type: cell-based
Procedure: (§1) Each of the testing conditions used in this study in both A2780/WT (wild-type) and A2780/DX5 cells were repeated in five to fifteen experiments that were performed on separate days. Each experiment consisted of one microtiter plate with at least eight individual assays of a given drug treatment condition on the plate. The sulforhodamine B (SRB) assay was used to assess cytotoxicity and absorbance at 570 nm (A570) in order to calculate the percentage of cell control (or percent cell survival) for the various treatment conditions in the plate wells.
(§2) Roswell Park Memorial Institute (RPMI 1640) medium, fetal bovine serum (FBS), and L-glutamine were purchased from Gibco BRL. Drugs were dissolved in sterile dimethylsulfoxide (DMSO), from American Type Culture Collection (ATCC) for stock solutions (2.5 to 5.0 mM). Subsequent dilutions were made using cell culture medium (prior to adding the drug to cells). SRB was purchased from Sigma and dissolved in 1.0% acetic acid. Trichloroacetic acid was purchased from VWR International.
(§3) Cells were manipulated in a Class IIA/B3 Biological Safety Cabinet (Forma Scientific) and maintained at 37°C in a humidified atmosphere containing 5% CO2 in a water-jacketed cell culture incubator (Forma Scientific). Cells were counted using a Coulter-Zl counter (Beckman-Coulter). Following drug treatment, plates were washed using a Biomek 2000 station (Beckman) and, following exposure to SRB dye, plates were washed using an automated plate washer (Model EL404, Bio-Tek Instruments). Percentage of control was correlated to A570 values and determined using a Model EL800 plate reader (Bio-Tek Instruments).
(§4) Population doubling times for the two cell lines used in this study encompassed a total of five cell doublings corresponding to approximately 5 days for A2780/WT and A2780/DX5 cells. A2780/WT and A2780/DX5 cells were cultured in RPMI 1640 medium supplemented with 10% fetal bovine serum and 1 mM of L-glutamine. Both cell lines were maintained as monolayered cultures in T-25 or T-75 flasks and then seeded to microtiter plate wells for experiments described herein. Prior to SRB assays, cell viability was monitored by evaluation of microtiter plate wells. Dead cells detach and float while living cells remain attached to the bottom of the cell well.
(§5) The sulforhodamine B (SRB) cytotoxicity assay (see, Skehan P, et al., New colorimetric cytotoxicity assay for anticancer-drug screening. J. Natl. Cancer Inst. 82: 1107-1112 (1990)) was used to determine the cytotoxic effects of BNP1350, SN-38, topotecan, 9-NH2-CPT, and 9-NO2-CPT on cell growth in vitro. Briefly, after the medium was aspirated from individual plate wells, trichloroacetic acid (100 µL of 10.0% solution) was added to each well, and the plates were incubated at 4°C for at least 1 hour. The plates were washed five-times with water using an automated microplate washer (Model EL 404, Bio-Tek Instruments), SRB solution (100 µL of 0.4 grams SRB dissolved in 100 mL 1.0% acetic acid) was added, and plates remained at room temperature for 15 minutes. The plates were then washed five-times using acetic acid (1.0 percent), air dried, and bound dye was solubilized in Tris base (150 µL, 10 mM). Plates were agitated (gently) for 5 minutes and the absorbance values of the SRB dye-protein adduct at a 570 nm wavelength (A570) were determined using an automated microtiter plate reader equipped with an A570 filter (Model EL800, BioTek Instruments). Table VII. Summary of Cytotoxicity Experiments in A2780/WT and DX5 Cells

A2780/DX5 cells = experiment: Sulforhodamine B (SRB) cytotoxicity assay in A2780/DX5 cells; type: cell-based; conditions: for IC50 Ratio: A2780/DX5 versus A2780/WT; for IC50: SRB assay
Procedure: as §1, §2, §3, §4, §5

[2] = over the first 48 hours, IV camptothecin sodium; cited from earlier work
human plasma proteins = experiment: Percent of free camptothecin analogs in human plasma (dialysis, HPLC); type: in vitro ADME; conditions: 100 nM Compound Concentrations
Procedure: Stocks of various camptothecin analogs were prepared in DMSO. […] Optimum HPLC detection conditions for each camptothecin analog were developed using traditional HPLC methods. Table VIII. Percent of Free Camptothecin Analogs in Human Plasma (100 nM Compound Concentrations)

[3] = system: Angiogenesis was induced by fibroblast growth factor; conditions: dose levels of 210 mg/kg; cited from earlier work
[4] = clinical studies in Japan alone; cited from earlier work
[5] = cited from earlier work

| Compound | IC50 [1] [nM] | IC50 Ratio (A2780/DX5 cells) | IC50 (A2780/DX5 cells) [nM] | Percent of Free CPTs (human plasma proteins) [%] | also measured |
| --- | --- | --- | --- | --- | --- |
| 7-(2'-Trimethylsilanyl) ethyl-10-(4-moroholinecarbonyloxy) camptothecin [Compound 12] | 65.6 | 2.1 | 135 | – | – |
| 7-(2'-Trimethylsilanyl) ethyl-10-(ethoxycarbonylmethoxyl camptothecin [Compound 9] | 73.9 | 1.7 | 123 | – | – |
| CC[C@@]1(O)C(=O)OCc2c1cc1n(c2=O)Cc2cc3ccccc3nc2-1 [CPT, (S)-4-Ethyl-4-hydroxy-1H-pyrano[3',4':6,7]indolizino[1,2-b]quinoline-3,14(4H,12H)-dione] | – | – | – | 0 | mean urine recovery of CPT [2]: 17.4% |
| CCc1c2c(nc3ccc(OC(=O)N4CCC(N5CCCCC5)CC4)cc13)-c1cc3c(c(=O)n1C2)COC(=O)[C@]3(O)CC [CPT-11, 7-ethyl-10-[4-(1-piperidino)-1-piperidino] carbonyloxy camptothecin] | – | – | – | – | neovascularization [3]: significant reduction of neovascularization; patient deaths directly attributable to drug toxicity [4]: approximately 100 |
| CC[C@@]1(O)C(=O)OCc2c1cc1n(c2=O)Cc2c-1nc1ccc(OC)cc1c2CC[Si](C)(C)C [Compound 1, 7-(2'-Trimethylsilanyl) ethyl-10-methoxy camptothecin] | 16.8 | 1.3 | 21.9 | 3.5 | – |
| CC[C@@]1(O)C(=O)OCc2c1cc1n(c2=O)Cc2c-1nc1ccc(OCOC)cc1c2CC[Si](C)(C)C [Compound 2, 7-(2'-Trimethylsilanyl) ethyl-10-methoxymethoxy camptothecin] | 43.4 | 1.5 | 64.8 | – | – |
| CC[C@@]1(O)C(=O)OCc2c1cc1n(c2=O)Cc2c-1nc1ccc(OCCCO)cc1c2CC[Si](C)(C)C [Compound 3, 7-(2'-trimethylsilanyl) ethyl-10-(3'-hydroxypropoxy) camptothecin] | 15 | 2.5 | 37.6 | 6.8 | – |
| CC[C@@]1(O)C(=O)OCc2c1cc1n(c2=O)Cc2c-1nc1ccc(OCCOC)cc1c2CC[Si](C)(C)C [Compound 4, 7-(2'-Trimethylsilanyl)ethyl-10-(2'-methoxyethoxy) camptothecin] | 70.1 | 1.0 | 70.6 | 6 | – |
| CC[C@@]1(O)C(=O)OCc2c1cc1n(c2=O)Cc2c-1nc1ccc(OC(C)C)cc1c2CC[Si](C)(C)C [Compound 5, 7-(2'-Trimethylsilanyl) ethyl-10-isopropoxy camptothecin] | 86.2 | 1.2 | 103 | – | – |
| CCOc1ccc2nc3c(c(CC[Si](C)(C)C)c2c1)C(O)n1c-3cc2c(c1=O)COC(=O)[C@]2(O)CC (stereo partly drawn) [Compound 6, 5-hydroxy-7-(2'-trimethylsilanyl) ethyl-10-ethoxy camptothecin] | 158 | 1.1 | 168 | – | – |
| CC[C@@]1(O)C(=O)OCc2c1cc1n(c2=O)C(O)c2c-1nc1ccc(OCC(N)=O)cc1c2CC[Si](C)(C)C (stereo partly drawn) [Compound 7, 5-Hydroxy-7-(2'-trimethylsilanyl) ethyl-10-amidomethoxy camptothecin] | 266 | – | > 650 | – | – |
| CC[C@@]1(O)C(=O)OCc2c1cc1n(c2=O)Cc2c-1nc1ccc(OC(=O)N(C)C)cc1c2CC[Si](C)(C)C [Compound 8, 7-(2'-trimethylsilanyl) ethyl-10-(dimethylcarbamoyloxy) camptothecin] | 54.8 | 1.1 | 61.1 | 6.4 | – |
| CC[C@@]1(O)C(=O)OCc2c1cc1n(c2=O)Cc2c-1nc1ccc(OCC(N)=O)cc1c2CC[Si](C)(C)C [Compound 10, 7-(2'-Trimethylsilanyl) ethyl-10-(amidomethyloxy) camptothecin] | 34.1 | 11.8 | 401 | 25 | – |
| CC[C@@]1(O)C(=O)OCc2c1cc1n(c2=O)Cc2c-1nc1ccc(OC(=S)N(C)C)cc1c2CC[Si](C)(C)C [Compound 13] | 117 | 2.0 | 228 | – | – |
| CCOc1ccc2nc3c(c(CC[Si](C)(C)C)c2c1)Cn1c-3cc2c(c1=O)COC(=O)[C@]2(O)CC [Compound 14, 7-(2'-Trimethylsilanyl) ethyl-10-ethoxy camptothecin] | 14.1 | 1.2 | 17.2 | – | – |
| CC[C@@]1(O)C(=O)OCc2c1cc1n(c2=O)Cc2c-1nc1ccc(OCC#N)cc1c2CC[Si](C)(C)C [Compound 15, 7-(2'-Trimethylsilanyl) ethyl-10-cyanomethoxy camptothecin] | 9.6 | 2.0 | 18.9 | – | – |
| CCc1c2c(nc3ccc(O)cc13)-c1cc3c(c(=O)n1C2)COC(=O)[C@]3(O)CC [SN-38, 10-hydroxy-7-ethyl camptothecin] | – | – | – | 15 | – |
| CC[C@@]1(O)C(=O)OCc2c1cc1n(c2=O)Cc2cc3c(CN(C)C)c(O)ccc3nc2-1 [Topotecan, 9-dimethylaminomethyl-10-hydroxy camptothecin] | – | – | – | 100 | – |
| CC[C@@](O)(C(=O)O)c1cc2n(c(=O)c1CO)Cc1cc3ccccc3nc1-2 [carboxylate form of CPT] | – | – | – | – | reduction of anti-tumor activity ([5]; carboxylate form versus lactone): at least 10 fold; anti-tumor potency relative to the non-hydrolyzed lactone form of CPT ([5]; sodium hydroxide formulation, hydrolysed E-ring): approximately one-tenth or less |
